Experimental data as given in ChEMBL document CHEMBL5724914, “Linking interpersonal differences in gut microbiota composition and drug biotransformation activity” (2024).

Legend:
[1] = (§1) The drug is tested on Z-025 corresponding to rabbit gut metagenome with ENA study accession number: PRJEB37062 and ENA sample accession number: ERS12561824 for biotransformation under anaerobic condition. The drug concentrations were measured over 9 timepoints collected between 0 and 24 hours of incubation by liquid-chromatography-coupled mass spectrometry (LC–MS); details: 2 µM
[2] = as §1, with “Z-018” for “Z-025”, “pig” for “rabbit”, “ERS12561817” for “ERS12561824”; details: 2 µM
[3] = as §1, with “Z-006” for “Z-025”, “mouse” for “rabbit”, “ERS12561806” for “ERS12561824”; details: 2 µM
[4] = as §1, with “Z-003” for “Z-025”, “pig” for “rabbit”, “ERS12561803” for “ERS12561824”; details: 2 µM
[5] = as §1, with “WLS-370” for “Z-025”, “human” for “rabbit”, “ERS12561793” for “ERS12561824”; details: 2 µM
[6] = as §1, with “WLS-310” for “Z-025”, “human” for “rabbit”, “ERS12561785” for “ERS12561824”; details: 2 µM
[7] = as §1, with “WLS-240” for “Z-025”, “human” for “rabbit”, “ERS12561773” for “ERS12561824”; details: 2 µM
[8] = as §1, with “WLS-220” for “Z-025”, “human” for “rabbit”, “ERS12561769” for “ERS12561824”; details: 2 µM
[9] = as §1, with “WLS-090” for “Z-025”, “human” for “rabbit”, “ERS12561753” for “ERS12561824”; details: 2 µM
[10] = as §1, with “WLS-073” for “Z-025”, “human” for “rabbit”, “ERS12561749” for “ERS12561824”; details: 2 µM
[11] = as §1, with “WLS-039” for “Z-025”, “human” for “rabbit”, “ERS12561746” for “ERS12561824”; details: 2 µM
[12] = as §1, with “WLS-038” for “Z-025”, “human” for “rabbit”, “ERS12561745” for “ERS12561824”; details: 2 µM
[13] = as §1, with “WLS-006” for “Z-025”, “human” for “rabbit”, “ERS12561741” for “ERS12561824”; details: 2 µM
[14] = human gut metagenome, 24 h, 2 µM
[15] = human gut metagenome, 24 h, 2 µM; remark: listed apart in the source
[16] = human gut metagenome, 24 h, 2 µM; remark: listed apart in the source
[17] = human gut metagenome, 24 h, 2 µM; remark: listed apart in the source
[18] = human gut metagenome, 24 h, 2 µM; remark: listed apart in the source
[19] = human gut metagenome, 24 h, 2 µM; remark: listed apart in the source
[20] = human gut metagenome, 24 h, 2 µM; remark: listed apart in the source
Note: call rule not given here.

| Bacterial Biotransformation [1] | Bacterial Biotransformation [2] | Bacterial Biotransformation [3] | Bacterial Biotransformation [4] | Bacterial Biotransformation [5] | Bacterial Biotransformation [6] | Bacterial Biotransformation [7] | Bacterial Biotransformation [8] | Bacterial Biotransformation [9] | Bacterial Biotransformation [10] | Bacterial Biotransformation [11] | Bacterial Biotransformation [12] | Bacterial Biotransformation [13] | Bacterial Biotransformation [14] | Bacterial Biotransformation [15] | Bacterial Biotransformation [16] | Bacterial Biotransformation [17] | Bacterial Biotransformation [18] | Bacterial Biotransformation [19] | Bacterial Biotransformation [20] | Structure (SMILES) |
| --- | --- | --- | --- | --- | --- | --- | --- | --- | --- | --- | --- | --- | --- | --- | --- | --- | --- | --- | --- | --- |
| Compound NOT metabolized | Compound metabolized | Compound NOT metabolized | Compound metabolized | Compound metabolized | Compound metabolized | Compound metabolized | Compound metabolized | Compound metabolized | Compound metabolized | Compound metabolized | Compound metabolized | Compound metabolized | Compound metabolized | Compound metabolized | Compound NOT metabolized | Compound metabolized | Compound metabolized | Compound NOT metabolized | Compound metabolized | CCOC(=O)[C@H](CCc1ccccc1)N[C@@H](C)C(=O)N1[C@H](C(=O)O)C[C@@H]2CCC[C@@H]21 |
| Compound NOT metabolized | Compound metabolized | Compound NOT metabolized | Compound metabolized | Compound metabolized | Compound metabolized | Compound metabolized | Compound NOT metabolized | Compound metabolized | Compound metabolized | Compound NOT metabolized | Compound NOT metabolized | Compound metabolized | Compound metabolized | Compound NOT metabolized | Compound NOT metabolized | Compound metabolized | Compound metabolized | Compound NOT metabolized | Compound metabolized | CCN(CC)CCNC(C(=O)OCCC(C)C)c1ccccc1.Cl.Cl (stereo not given) |
| Compound NOT metabolized | Compound NOT metabolized | Compound NOT metabolized | Compound metabolized | Compound NOT metabolized | Compound metabolized | Compound metabolized | Compound NOT metabolized | Compound metabolized | Compound NOT metabolized | Compound NOT metabolized | Compound NOT metabolized | Compound NOT metabolized | Compound metabolized | Compound metabolized | Compound metabolized | Compound metabolized | Compound NOT metabolized | Compound NOT metabolized | Compound metabolized | CCCC(=O)Nc1ccc(OCC(O)CNC(C)C)c(C(C)=O)c1 (stereo not given) [ACEBUTOLOL] |
| Compound metabolized | Compound NOT metabolized | Compound NOT metabolized | Compound metabolized | Compound NOT metabolized | Compound NOT metabolized | Compound metabolized | Compound metabolized | Compound metabolized | Compound NOT metabolized | Compound NOT metabolized | Compound NOT metabolized | Compound NOT metabolized | Compound metabolized | Compound NOT metabolized | Compound NOT metabolized | Compound metabolized | Compound NOT metabolized | Compound NOT metabolized | Compound metabolized | C=CCc1ccccc1OCC(O)CNC(C)C (stereo not given) [ALPRENOLOL] |
| Compound NOT metabolized | Compound NOT metabolized | Compound NOT metabolized | Compound metabolized | Compound metabolized | Compound metabolized | Compound metabolized | Compound NOT metabolized | Compound metabolized | Compound NOT metabolized | Compound metabolized | Compound metabolized | Compound metabolized | Compound NOT metabolized | Compound NOT metabolized | Compound metabolized | Compound metabolized | Compound metabolized | Compound NOT metabolized | Compound metabolized | CC(C)c1c(C(=O)Nc2ccccc2)c(-c2ccccc2)c(-c2ccc(F)cc2)n1CC[C@@H](O)C[C@@H](O)CC(=O)O [ATORVASTATIN] |
| Compound NOT metabolized | Compound metabolized | Compound metabolized | Compound metabolized | Compound metabolized | Compound metabolized | Compound metabolized | Compound metabolized | Compound metabolized | Compound metabolized | Compound metabolized | Compound metabolized | Compound metabolized | Compound metabolized | Compound metabolized | Compound NOT metabolized | Compound metabolized | Compound metabolized | Compound NOT metabolized | Compound metabolized | CCOC(=O)[C@H](CCc1ccccc1)N[C@H]1CCc2ccccc2N(CC(=O)O)C1=O [BENAZEPRIL] |
| Compound metabolized | Compound NOT metabolized | Compound NOT metabolized | Compound NOT metabolized | Compound NOT metabolized | Compound NOT metabolized | Compound NOT metabolized | Compound NOT metabolized | Compound NOT metabolized | Compound NOT metabolized | Compound NOT metabolized | Compound NOT metabolized | Compound NOT metabolized | Compound NOT metabolized | Compound NOT metabolized | Compound NOT metabolized | Compound NOT metabolized | Compound NOT metabolized | Compound NOT metabolized | Compound NOT metabolized | NS(=O)(=O)c1cc2c(cc1Cl)N=C(CSCc1ccccc1)NS2(=O)=O [BENZTHIAZIDE] |
